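Each compound was tested at five concentrations against cells in 96-well plates for 48 hours. Abbreviation: GI50, concentration required for 50% inhibition of growth. TGI marks complete inhibition of growth.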
Columns and labels:
Assay in all cases: inhibition of tumour cell growth, NCI panel, 48 h
[1] = test system: MDA-MB-435
[2] = test system: PC-3 prostate
[3] = test system: NCI/ADR-RES ovarian
[4] = test system: NCI-H522 lung
[5] = test system: DU-145 prostate
[6] = test system: SNB-75 CNS
[7] = test system: COLO 205 colon
[8] = test system: HT29 colon
[9] = test system: 786-0 renal
[10] = test system: SK-MEL-28 melanoma

SMILES	GI50 [1]	TGI [1]	GI50 [2]	TGI [2]	GI50 [3]	TGI [3]	GI50 [4]	TGI [4]	GI50 [5]	TGI [5]	GI50 [6]	TGI [6]	GI50 [7]	TGI [7]	GI50 [8]	TGI [8]	GI50 [9]	TGI [9]	GI50 [10]	TGI [10]
CN(C)CCOc1cccc(NC2=C(Cl)C(=O)C(Nc3cccc(OCCN(C)C)c3)=C(Cl)C2=O)c1	0.666 µM	1.9 µM	1.52 µM	3.25 µM	2.44 µM	> 26.4 µM	0.194 µM	0.46 µM	0.366 µM	1.27 µM	1.93 µM	4.87 µM	0.258 µM	0.684 µM	0.258 µM	0.666 µM	0.49 µM	1.12 µM	1.03 µM	2.49 µM
O=C(Nc1cc(Cl)cc(Cl)c1)c1ccc(NC2=C(Cl)C(=O)N(Cc3ccccc3)C2=O)cc1	11.7 µM	25.2 µM	3.29 µM	12.7 µM	11.3 µM	26.7 µM	7.78 µM	25.7 µM	0.96 µM	6.91 µM	35.4 µM	74.5 µM	28.6 µM	> 100 µM	16.8 µM	> 100 µM	2.87 µM	8.74 µM	41.9 µM	> 100 µM
CCCNNC(=O)c1ccc(CNC(=O)/C=C/c2ccccc2)cc1	0.2 µM	–	0.173 µM	> 100 µM	0.111 µM	–	0.226 µM	> 100 µM	0.218 µM	> 100 µM	0.311 µM	> 23.5 µM	0.0909 µM	0.292 µM	0.12 µM	> 100 µM	0.314 µM	> 100 µM	0.146 µM	0.857 µM
O=S(=O)(c1ccccc1)C1CN(Cc2ccccc2)CCN(Cc2ccccc2)C1	–	86.6 µM	–	45.3 µM	–	78.1 µM	–	34.1 µM	–	> 100 µM	–	> 100 µM	–	> 100 µM	–	> 100 µM	–	> 100 µM	–	> 100 µM
Nc1nn(C(=O)Nc2ccc(Cc3ccccc3)cc2)c2ccccc12	2.82 µM	> 100 µM	13.5 µM	51.1 µM	7.87 µM	> 100 µM	2.9 µM	> 100 µM	1.02 µM	28.3 µM	17 µM	47.4 µM	13.4 µM	37.7 µM	2.39 µM	17.6 µM	3.76 µM	26.2 µM	11.5 µM	> 100 µM
C(#Cc1ccccc1C#Cc1ccccn1)c1ccc(OCCCCCCOc2ccc(C#Cc3ccccc3C#Cc3ccccn3)cc2)cc1	1.69 µM	9.71 µM	5.18 µM	14 µM	2.43 µM	18.3 µM	2.55 µM	13.1 µM	6.36 µM	13 µM	5.26 µM	13.8 µM	8.35 µM	15.6 µM	8.16 µM	14.9 µM	5.55 µM	28.8 µM	6.18 µM	12.4 µM
Cc1cc(Cl)ccc1Nc1nc(C(F)(F)F)ccc1C(=O)N/N=C/c1ccc(F)cc1	2.78 µM	11 µM	1.85 µM	8.64 µM	2.27 µM	19.2 µM	2.4 µM	8.12 µM	3.46 µM	13.8 µM	1.55 µM	9.45 µM	1.61 µM	3.64 µM	2.83 µM	10.3 µM	1.45 µM	5.93 µM	2.01 µM	10.6 µM
CCN(CC)CCCC(C)Nc1ccnc2cc(Cl)c(SCc3ccccc3)cc12 (centres undefined)	0.275 µM	0.838 µM	1.72 µM	3.96 µM	1.44 µM	3.17 µM	0.58 µM	2.01 µM	3.45 µM	13.5 µM	1.66 µM	3.32 µM	1.04 µM	2.3 µM	0.338 µM	1.13 µM	1.47 µM	2.85 µM	1.15 µM	2.41 µM
COC(=O)/C(Br)=C/c1c[nH]c2ccc(Br)cc12	12.2 µM	25.3 µM	11.2 µM	27.8 µM	12.4 µM	47.8 µM	10.2 µM	32.1 µM	13.2 µM	25.9 µM	12.2 µM	33 µM	12.5 µM	25.1 µM	11 µM	24.8 µM	13 µM	35.9 µM	14.3 µM	27.8 µM
O=C1C=CC(=O)N1CCCCCCCCCCN1C(=O)C=CC1=O	13.2 µM	28.1 µM	18.1 µM	36.5 µM	21.2 µM	55.9 µM	1.6 µM	3.41 µM	15.8 µM	29.2 µM	11.5 µM	24.4 µM	2.15 µM	5.62 µM	4.67 µM	26.7 µM	16.2 µM	30.4 µM	14.8 µM	30.9 µM
N=C1N=Nc2nc(C3(c4nc5n(c4O)C(=N)N=N5)Cc4ccccc4C3=O)c(O)n21 (centres undefined)	–	> 100 µM	–	> 100 µM	–	> 100 µM	87.5 µM	> 100 µM	–	> 100 µM	–	> 100 µM	–	> 100 µM	–	> 100 µM	–	> 100 µM	–	> 100 µM
O=C(Nc1cccc2ccccc12)c1cc2ccccc2cc1O	1.87 µM	5.05 µM	2 µM	8.48 µM	2.17 µM	8.07 µM	1.66 µM	4.83 µM	3.84 µM	> 100 µM	1.6 µM	6.11 µM	9.76 µM	23.7 µM	3.55 µM	12.4 µM	3.43 µM	17.2 µM	3.58 µM	22.4 µM
COc1ccc(/C=C/C(=O)c2ccc(NC(=O)CSc3nnc(-c4cc(OC)c(OC)c(OC)c4)o3)cc2)cc1	1.7 µM	3.4 µM	1.75 µM	3.3 µM	2.42 µM	7.03 µM	1.55 µM	3.22 µM	1.75 µM	3.21 µM	1.47 µM	3.15 µM	1.94 µM	3.84 µM	1.83 µM	3.62 µM	1.7 µM	3.36 µM	1.74 µM	3.4 µM

From PubChem BioAssay (NCI)
